Entries after “also recorded” stand apart in the source; their conditions may differ. Where a SMILES comes first, the peptide text is derived from it. The star is where a group is joined. Cbz = O=C(OCc1ccccc1)*; CH2F = FC*
Assays:
[1] = system: bovine cartilage explants; test: Apoptosis (TUNEL) in mechanically injured bovine cartilage explants; assay type: cell-based; conditions: for Mean (±SD) apoptosis rates, Loaded + Agent: bovine femoral condyle cartilage, loaded at 23 MPa, in vitro, n = 8 to 10
Description: Cartilage explants. Macroscopically normal weight bearing portions of freshly slaughtered skeletally mature bovine femoral condyles were selected from animals between 2 and 6 years of age (Animal Technologies, Austin, Tex.). Only joints without visible signs of degeneration or aging were selected. Using sterile techniques, full thickness cartilage was separated from underlying subchondral bone with a scalpel and 5 mm diameter cylindrical explants, ranging from 1 to 1.8 mm in height, cored out using a dermal punch (Acuderm, Inc., Ft. Lauderdale, Fla.). Explants taken from adjacent sites were used as matched controls for each group in each experiment to minimize variation in cartilage response due to differences in thickness and location within the joint. Each explant was weighed and allowed to stabilize at 37° C. and 5% CO2 for 48 hours in 1 ml of Dulbecco's modified Eagle's medium (DMEM) supplemented with 10% fetal bovine serum (FBS), L-glutamine, antibiotics and 50 μg/ml ascorbic acid.
Full thickness bovine cartilage explants, 5 mm in diameter, were subjected to a single static mechanical load of 7, 14 or 23 MPa for 500 msec. This model simulates traumatic cartilage injury and the loads were similar in magnitude to those generated during traumatic joint injury. Glycosaminoglycan (GAG) release and percent apoptotic cells were measured. The effect of a pan-caspase inhibitor, z-VAD.fmk [benzyloxycarbonyl-Val-Ala-Asp (OMe) fluoromethylketone] in preventing chondrocyte apoptosis was determined. z-VAD.fmk is a fluoromethylketone irreversible inhibitor of a broad spectrum of caspases. […] The percentage of apoptotic chondrocytes was related to load intensity and correlated with the level of GAG release from cartilage. […] This identifies a new approach to limit traumatic cartilage injury and the subsequent development of secondary osteoarthritis.
Loading apparatus and procedure. A model to simulate acute joint injury was used in this study based on injury models reported by Repo and Finlay, and Jeffrey et al. (Repo, et al. (1977) J. Bone Joint Surg. Am. 59A, 1068-1076, Jeffrey, et al. (1995) Arch. Biochem. Biophys. 322, 87-96). Although these reported models impacted cartilage using drop towers, a more controlled method was chosen for applying and maintaining stress or strain as follows. An Instron 8511 servohydraulic testing machine (Instron Corporation, Boston, Mass.) was used to mechanically load the cartilage explants. Explants were transported from the incubator to the Instron machine in sealed cell culture dishes. The explant was centralized on a stainless steel loading platform and a radially unconfined compressive load was applied through an impermeable stainless steel platen. A small preload (0.1 MPa) was applied for 2 minutes, followed by a single 500 msec trapezoidal loading waveform at the selected stress. The stress rose from 0.1 MPa to the chosen stress level in 100 msec and was maintained for 500 msec. Three stress levels were chosen to represent acute joint injury. 7 MPa has been reported to be the upper limit of physiologic stress developed during activities of daily living (von Eisenhart, et al. (1999) J. Orthop. Res. 17, 532-539). 23 MPa is the stress above which the underlying bone has been reported to fracture (Haut (1989) J. Orthop. Res. 7, 272-280). Control explants were placed in the loading apparatus but not loaded. […] Stress and strain data were recorded during the test. […]

human cartilage explants = test: Apoptosis (TUNEL) in mechanically injured human cartilage explants; assay type: cell-based; conditions: for Mean (±SD) apoptosis rates, Loaded + Agent: human cartilage (femoral condyles and tibial plateaus), in vitro, n = 8 to 10
Description: Cartilage explants. Macroscopically normal tibial and femoral articular surfaces were selected from human cadaver donors between 18 and 45 years of age. Using sterile techniques, full thickness cartilage was separated from underlying subchondral bone with a scalpel. 5 mm diameter cylindrical explants, ranging from 2 to 2.8 mm in thickness, cored out using a dermal punch (Acuderm, Inc., Ft. Lauderdale, Fla.). Explants taken from adjacent sites were used as matched controls for each group in each experiment to minimize variation in cartilage response due to differences in thickness and location within the joint. Each explant was weighed and allowed to stabilize at 37° C. and 5% CO2 for 48 hours in Dulbecco's modified Eagle's medium (DMEM) supplemented with 5% fetal bovine serum (FBS), L-glutamine, antibiotics and […] ascorbic acid.
Loading apparatus and procedure. An Instron 8511 servohydraulic testing machine (Instron Corporation, Boston, Mass.) was used to mechanically load the cartilage explants. Explants were transported from the incubator to the Instron machine in sealed cell culture dishes. The total time duration of loading for a single experiment varied from approximately 1 to 2 hours depending on the number of samples. During this time, explants were maintained at 37° C. The explant was centralized on a stainless steel loading platform and a radially unconfined compressive load was applied through an impermeable stainless steel platen. […] Stress and strain data were recorded during the test.
Caspase inhibition. […] Percentage apoptosis was measured at 96 hours post-injury in three groups (control, loaded, and loaded with z-VAD.fmk) with ten explants each in two separate experiments.
Apoptosis detection. […] This was detected by immunohistochemical staining with M30 (Cytodeath, Boehringer Mannheim, Eugene, Oreg.), a monoclonal antibody that recognizes the neo-epitope exposed in early apoptosis.
Chondrocyte apoptosis after mechanical injury to human cartilage. […] GAG release and percentage of cells undergoing apoptosis were measured at 96 hours after injury. […]

[2] = system: bovine cartilage explants; test: Glycosaminoglycan release assay (DMMB) in injured bovine cartilage explants; assay type: cell-based; conditions: bovine explants after mechanical injury, z-VAD.fmk 100 μM, 48 hours
Procedure: Glycosaminoglycan release assay. To estimate GAG depletion and release, the concentration of sulfated glycosaminoglycans was measured using […] (DMMB) as a monitor of spectrophotometric changes which occur during the formation of the sulfated GAG dye complex (Farndale, et al. (1986) Biochim. Biophys. Acts. 883, 173-177, Goldberg, et al. (1993) Agents Actions 39 Spec No, C163-C165). For GAG content measurement, samples were digested in papain and collagenase and the concentration of sulfated GAG measured using DMMB. To generate a standard curve, chondroitin-6-sulfate (Sigma, St. Louis, Mo.) was used at concentrations between 1 and 200 μg/ml. GAG released in media was normalized to the pooled mean GAG content of Control (uninjured) cartilage explants and expressed as a percentage of total GAG content.
Inhibition of apoptosis. To determine whether apoptosis could be prevented by caspase inhibition, 12 explants were loaded at 23 MPa (High Load) and cultured for 48 hours. […] Percent apoptosis and GAG release in media was measured as described above.
Release of sulfated glycosaminoglycans (GAG) was analyzed as a measure of the extent of damage sustained by the explant. […] GAG depletion was assessed by dimethylene blue binding assays of the culture supernatants and this correlated with the reduced of safranin O staining of the cartilage sections.

[3] = system: femoral and tibial articular cartilage; test: Intraarticular injection of caspase inhibitor in rabbits with anterior cruciate ligament transection (ACLT); assay type: in vivo, New Zealand White rabbits; conditions: rabbit bilateral ACLT, 25 μg intra-articular three times per week for six weeks
Procedure: Intraarticular injection of caspase inhibitor in rabbits with ligament transection. A pilot study was performed to assess feasibility and efficacy of caspase inhibition in vivo. Eight New Zealand White rabbits were divided into anterior cruciate ligament transection (ACLT) and ACLT+ caspase inhibitor (CI) groups. Both groups underwent bilateral ACLT. The ACLT+CI group was treated with intra-articular injections of 25 μg of z-VAD.fmk three times per week for six weeks while the control group received saline injections. Rabbits were euthanised at six weeks and femoral and tibial articular cartilage evaluated by India ink staining and histologic Mankin grading after Safranin-O stain.
Histologically, more knees from the ACLT group had higher Mankin scores. 87% (⅞) ACLT knees had grades 5 or higher, while 50% ( 4/8) ACLT+CI knees were graded 5 or higher. The India ink stained femoral condyles were photographed and digital images were used to quantify the surface areas of the lesions.

| Compound | Mean (±SD) apoptosis rates, Loaded + Agent [1] | chondrocyte apoptosis after mechanical injury (result in words) ([1]; bovine explants, z-VAD.fmk 100 μM, 23 MPa, 48 hours) | reduction in the apoptosis rate ([1]; high and intermediate load groups, bovine explants) | Mean (±SD) apoptosis rates, Loaded + Agent (human cartilage explants; loaded at 23 MPa) | mean reduction in apoptotic rates (human cartilage explants; human explants cultured in z-VAD.fmk immediately after injury, 30% strain, 96 hours post-injury) | GAG release / GAG depletion [2] | GAG release / GAG depletion ([2]; listed as pan-caspase inhibitor) | reduction of the size of the cartilage lesions (surface area, India ink stained femoral condyles) [3] | knees with histologic Mankin grades 5 or higher ([3]; 4/8 knees, ACLT saline group 87%) | cartilage lesions under India ink examination (area, grade) ([3]; ACLT group grade III to IVa, listed as caspase inhibitor) | Mean (±SD) apoptosis rates, Loaded + Agent (human cartilage explants; loaded at 30% strain) |
| --- | --- | --- | --- | --- | --- | --- | --- | --- | --- | --- | --- |
| C[C@@H]1C[C@H]2[C@@H]3CCC4=CC(=O)C=C[C@]4(C)[C@@]3(F)[C@@H](O)C[C@]2(C)[C@@]1(O)C(=O)CO [Dexameth.] | 47 (±11.2) % |  |  |  |  |  |  |  |  |  |  |
| COC(=O)CC(NC(=O)C(C)NC(=O)C(NC(=O)OCc1ccccc1)C(C)C)C(=O)CF (stereo not drawn) [z-VAD.fmk, benzyloxycarbonyl-Val-Ala-Asp (OMe) fluoromethylketone] (Cbz-Val-Ala-Asp(OMe)-CH2F; configuration not given here) | 31 (±13.9) % | reduced chondrocyte apoptosis | > 50% | 34 (±10.2) % | 50% | normalization of the GAG depletion | reduction in GAG release | ~80% | 50% | lesions that were smaller in area; also recorded: ranged from II (minimum fibrillation) |  |
| IGF-1: agent IGF-1 tested for pharmacologic modulation of apoptosis after cartilage injury in vitro | 42 (±10.9) % |  |  |  |  |  |  |  |  |  | 10 (±6.2) % |

From US20100323968A1, “Process of inhibiting cell death in injured cartilage” (The Scripps Research Institute, priority 2001, published 2010)
